Results taken from patent US7880007B2, “Bicyclic substituted phenyl piperidine modulators of muscarinic receptors” (Vertex Pharmaceuticals Incorporated, priority 2004, dated 2011).

Assays:
Assay type in all cases: cell-based
M1 muscarinic receptor = target: T1, M1 muscarinic receptor (Homo sapiens, UniProt P11229); test: Functional mobilization of intracellular calcium (FLIPR), M1-CHO cells; conditions: for M1 Activity: M1-CHO cells, calcium mobilization (FLIPR)
T1 construct: expressed in transfected cells; host or cells: CHO (M1-CHO)
T1 sequence (P11229 1-460): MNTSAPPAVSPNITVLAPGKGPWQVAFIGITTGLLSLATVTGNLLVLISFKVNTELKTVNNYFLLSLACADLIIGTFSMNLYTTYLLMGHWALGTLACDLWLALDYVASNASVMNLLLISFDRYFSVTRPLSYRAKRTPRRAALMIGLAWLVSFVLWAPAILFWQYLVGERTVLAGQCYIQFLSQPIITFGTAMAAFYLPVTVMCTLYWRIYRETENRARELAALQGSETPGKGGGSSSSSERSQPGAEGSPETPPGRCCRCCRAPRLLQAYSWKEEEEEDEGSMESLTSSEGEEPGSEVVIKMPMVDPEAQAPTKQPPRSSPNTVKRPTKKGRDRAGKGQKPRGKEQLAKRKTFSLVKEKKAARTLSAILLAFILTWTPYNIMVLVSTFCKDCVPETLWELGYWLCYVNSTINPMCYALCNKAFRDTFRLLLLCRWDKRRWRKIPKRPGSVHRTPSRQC
Procedure, shortened: (§1)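 CHO cells expressing human M1–M4 receptors loaded with Fluo-3 AM or Calcium 3 dye (1 mM probenecid, pH 7.4); 0.5% DMSO final. Agonist mode: compound added directly; antagonist mode: 15 min pre-incubation or co-application, then carbachol at EC80. Fluorescence read 60 s on FLIPR; efficacy relative to carbachol maximum.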

M2 muscarinic receptor = target: T2, M2 muscarinic receptor (Homo sapiens, UniProt P08172); test: Functional mobilization of intracellular calcium (FLIPR), M2-CHO cells; conditions: for M2 Activity: M2-CHO cells, calcium mobilization (FLIPR)
T2 construct: expressed in transfected cells; host or cells: CHO (M2-CHO)
T2 sequence (P08172 1-466): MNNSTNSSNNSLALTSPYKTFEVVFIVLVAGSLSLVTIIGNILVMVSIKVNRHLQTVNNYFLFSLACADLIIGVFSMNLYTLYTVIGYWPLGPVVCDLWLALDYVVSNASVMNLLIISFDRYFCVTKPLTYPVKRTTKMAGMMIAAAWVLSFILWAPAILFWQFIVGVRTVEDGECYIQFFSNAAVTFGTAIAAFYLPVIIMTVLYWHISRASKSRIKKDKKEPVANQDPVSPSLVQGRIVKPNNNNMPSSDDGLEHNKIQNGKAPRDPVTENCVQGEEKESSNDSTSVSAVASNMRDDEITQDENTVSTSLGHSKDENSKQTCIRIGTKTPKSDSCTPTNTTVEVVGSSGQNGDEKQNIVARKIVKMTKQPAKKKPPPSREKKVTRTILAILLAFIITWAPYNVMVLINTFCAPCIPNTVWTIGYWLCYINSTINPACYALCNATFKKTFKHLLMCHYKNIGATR
Procedure, shortened: as §1

M3 muscarinic receptor = target: T3, M3 muscarinic receptor (Homo sapiens, UniProt P20309); test: Functional mobilization of intracellular calcium (FLIPR), M3-CHO cells; conditions: for M3 Activity: M3-CHO cells, calcium mobilization (FLIPR)
T3 construct: expressed in transfected cells; host or cells: CHO (M3-CHO)
T3 sequence (P20309 whole entry): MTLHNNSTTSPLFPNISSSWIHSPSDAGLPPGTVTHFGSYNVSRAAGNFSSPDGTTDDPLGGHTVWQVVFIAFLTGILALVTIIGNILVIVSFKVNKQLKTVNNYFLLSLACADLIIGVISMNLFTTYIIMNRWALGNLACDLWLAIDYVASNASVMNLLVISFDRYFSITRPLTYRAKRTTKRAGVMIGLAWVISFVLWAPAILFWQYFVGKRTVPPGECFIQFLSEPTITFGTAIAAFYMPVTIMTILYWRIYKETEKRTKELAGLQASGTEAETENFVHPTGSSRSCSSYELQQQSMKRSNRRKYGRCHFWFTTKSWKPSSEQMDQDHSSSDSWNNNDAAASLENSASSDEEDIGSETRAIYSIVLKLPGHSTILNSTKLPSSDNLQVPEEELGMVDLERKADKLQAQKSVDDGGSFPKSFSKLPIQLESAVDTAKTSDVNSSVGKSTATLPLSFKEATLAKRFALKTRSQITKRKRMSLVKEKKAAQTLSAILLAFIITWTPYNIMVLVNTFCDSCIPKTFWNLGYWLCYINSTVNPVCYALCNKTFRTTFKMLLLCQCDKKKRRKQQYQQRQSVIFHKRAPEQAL
Procedure, shortened: as §1

M4 muscarinic receptor = target: T4, M4 muscarinic receptor (Homo sapiens, UniProt P08173); test: Functional mobilization of intracellular calcium (FLIPR), M4-CHO cells; conditions: for M4 Activity: M4-CHO cells, calcium mobilization (FLIPR)
T4 construct: expressed in transfected cells; host or cells: CHO (M4-CHO)
T4 sequence (P08173 1-479): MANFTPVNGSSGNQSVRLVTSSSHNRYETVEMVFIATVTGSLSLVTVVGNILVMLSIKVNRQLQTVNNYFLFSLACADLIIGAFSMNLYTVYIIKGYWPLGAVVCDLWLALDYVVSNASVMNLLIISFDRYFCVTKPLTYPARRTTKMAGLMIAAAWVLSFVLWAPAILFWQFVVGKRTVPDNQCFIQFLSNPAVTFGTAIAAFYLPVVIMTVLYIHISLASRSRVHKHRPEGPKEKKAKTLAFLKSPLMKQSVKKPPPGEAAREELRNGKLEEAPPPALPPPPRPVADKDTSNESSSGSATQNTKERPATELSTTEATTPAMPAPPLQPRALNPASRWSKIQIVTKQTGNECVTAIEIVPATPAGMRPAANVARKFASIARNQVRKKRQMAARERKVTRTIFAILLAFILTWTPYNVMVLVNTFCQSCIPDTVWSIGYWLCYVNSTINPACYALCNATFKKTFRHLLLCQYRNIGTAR
Procedure, shortened: as §1

[1] = 100% efficacy = maximum response obtained with the Carbachol control
[2] = 100% efficacy is the maximum response obtained with the Carbachol control

SMILES	Emax (M1 muscarinic receptor; [1])	Emax (M2 muscarinic receptor; [1])	Emax (M3 muscarinic receptor; [1])	Emax (M4 muscarinic receptor; [1])	M1 Activity (M1 muscarinic receptor)	M2 Activity (M2 muscarinic receptor)	M3 Activity (M3 muscarinic receptor)	M4 Activity (M4 muscarinic receptor)	Emax (M1 muscarinic receptor; [2])	Emax (M2 muscarinic receptor; [2])	Emax (M3 muscarinic receptor; [2])	Emax (M4 muscarinic receptor; [2])
COc1ccc(C(=O)C(C)C)cc1C1CCN(C2CC3CC[C@H]2C3)CC1 (stereo in doubt) [Compound 222, 1-(3-(1-((1S,2R,4R)-bicyclo[2.2.1]heptan-2-yl)piperidin-4-yl)-4-methoxyphenyl)-2-methylpropan-1-one]	25 to 100%	< 25%	< 25%	< 25%	–	–	–	–	–	–	–	–
CCC(C)Oc1ccccc1C1CCN([C@H]2C[C@H]3CC[C@H]2C3)CC1 (some centres unmarked) [Compound 384]	–	–	–	–	+ (activity was measured to be greater than 5.0 μM)	+ (activity was measured to be greater than 5.0 μM)	+ (activity was measured to be greater than 5.0 μM)	++ (activity was measured to be from 1.0 μM to 5.0 μM)	25 to 100%	< 25%	< 25%	25 to 100%
CCOC(=O)N1CCC(CN2CCC(c3cc(F)ccc3OC)CC2)CC1 [Compound 39]	25 to 100%	25 to 100%	< 25%	25 to 100%	+++ (activity was measured to be less than 1.0 μM)	+++ (activity was measured to be less than 1.0 μM)	+ (activity was measured to be greater than 5.0 μM)	+++ (activity was measured to be less than 1.0 μM)	–	–	–	–
COc1ccc(C)cc1C1CCN(C2C[C@H]3CC[C@H](C2)C3)CC1 (some centres unmarked) [Compound 246]	25 to 100%	25 to 100%	< 25%	25 to 100%	++ (activity was measured to be from 1.0 μM to 5.0 μM)	+ (activity was measured to be greater than 5.0 μM)	+ (activity was measured to be greater than 5.0 μM)	+++ (activity was measured to be less than 1.0 μM)	–	–	–	–
CCOC(=O)N1C2CCC1CC(N1CCC(c3cc(-c4ccc5c(c4)OCO5)ccc3OC)CC1)C2 (centres unmarked) [Compound 387]	–	–	–	–	+ (activity was measured to be greater than 5.0 μM)	+ (activity was measured to be greater than 5.0 μM)	+ (activity was measured to be greater than 5.0 μM)	++ (activity was measured to be from 1.0 μM to 5.0 μM)	25 to 100%	< 25%	< 25%	25 to 100%
COc1ccc(-c2ccc(C#N)cc2)cc1C1CCN(C2CC3CCC(C3)C2)CC1 (centres unmarked) [Compound 82]	25 to 100%	< 25%	< 25%	25 to 100%	+ (activity was measured to be greater than 5.0 μM)	+ (activity was measured to be greater than 5.0 μM)	+ (activity was measured to be greater than 5.0 μM)	+ (activity was measured to be greater than 5.0 μM)	–	–	–	–

Second part, led by results:

Emax (M1 muscarinic receptor; [1])	Emax (M2 muscarinic receptor; [1])	Emax (M3 muscarinic receptor; [1])	Emax (M4 muscarinic receptor; [1])	SMILES	M1 Activity (M1 muscarinic receptor)	M2 Activity (M2 muscarinic receptor)	M3 Activity (M3 muscarinic receptor)	M4 Activity (M4 muscarinic receptor)	Emax (M1 muscarinic receptor; [2])	Emax (M2 muscarinic receptor; [2])	Emax (M3 muscarinic receptor; [2])	Emax (M4 muscarinic receptor; [2])
< 25%	< 25%	< 25%	25 to 100%	Cc1ccccc1-c1ccccc1C1CCN([C@H]2C[C@H]3CC[C@H]2C3)CC1 [Compound 302]	+ (activity was measured to be greater than 5.0 μM)	+ (activity was measured to be greater than 5.0 μM)	+ (activity was measured to be greater than 5.0 μM)	++ (activity was measured to be from 1.0 μM to 5.0 μM)	–	–	–	–
25 to 100%	< 25%	–	25 to 100%	Cc1ccc(C)c(C2CCN(CC3CC4C=CC3C4)CC2)c1 (centres unmarked) [Compound 329]	+ (activity was measured to be greater than 5.0 μM)	+ (activity was measured to be greater than 5.0 μM)	+ (activity was measured to be greater than 5.0 μM)	++ (activity was measured to be from 1.0 μM to 5.0 μM)	–	–	–	–
